Laboratory results published in patent publication US20120171126A1, “NOVEL [3,2-c] HETEROARYL STEROIDS AS GLUCOCORTICOID RECEPTOR AGONISTS COMPOSITIONS AND USES THEREOF” (priority 2009, published 2012).

tested on: IL-8; assay: Glucocorticoid transrepression assay, IL-8 inhibition (TR); type: cell-based; settings: Homo sapiens; Table 1; NCl-H292 cells, TNFα 10 ng/ml
Protocol: Human Lung epithelial cell line NCl-H292 cells were dissociated from stock flask using 0.05% trypsin/0.53 mM EDTA. Cells were suspended in complete medium and counted. Cells were plated in 96-well flat-bottom plates at 20K cells /well in 0.2 ml/well. Plates were incubated for 24-48 hours until cells were between 75-90% confluent. Medium was aspirated and replaced with medium containing various concentrations of steroids or antagonists. After 1 hour incubation at 37°, TNFα (10 ng/ml final concentration in 0.2 ml) was added and the cells incubated overnight. Control wells with and without TNF were included on each plate, as well as wells with TNF in addition to a maximum (10 μM) concentration of dexamethasone. The cell culture medium was sampled and IL-6 and IL-8 cytokine production was measured using the MSD Multi-Spot immunoassay.

`Cn1ncc2c1C=C1CCC3C([C@@H](O)CC4(C)C3CC[C@]4(O)C(=O)CSc3nc4ccccc4[nH]3)C1(C)C2` (stereo partly shown) [Compound 24] and `Cn1ncc2c1C=C1CCC3C([C@@H](O)CC4(C)C3CC[C@]4(O)C(=O)CSc3nc4ccccc4n3C)C1(C)C2` (stereo partly shown) [Compound 20] fall in the same range of IC50: 66 to 400 nM for the first, 66 to 400 nM for the second.

`CC12Cc3cnn(-c4ccc(F)cc4)c3C=C1CCC1C2[C@@H](O)CC2(C)C1CC[C@]2(O)C(=O)COc1nccc2ccccc12` (stereo partly shown) [Compound 114] and `CC12Cc3cnn(-c4ccc(F)cc4)c3C=C1CCC1C2[C@@H](O)CC2(C)C1CC[C@]2(O)C(=O)CSc1ncccn1` (stereo partly shown) [Compound 7] fall in the same range of IC50: 0.06 to 20 nM for the first, 0.06 to 20 nM for the second.

`CC12Cc3cnn(-c4ccccc4)c3C=C1CCC1C2[C@@H](O)CC2(C)C1CC[C@]2(O)C(=O)COc1nc2ccccc2s1` (stereo partly shown) [Compound 120] and `Cn1c(OCC(=O)[C@@]2(O)CCC3C4CCC5=Cc6c(cnn6-c6ccccc6)CC5(C)C4[C@@H](O)CC32C)nc2ccccc21` (stereo partly shown) [Compound 119] fall in the same range of IC50: 0.06 to 20 nM for the first, 0.06 to 20 nM for the second.

`Cc1cc(C)nc(SCC(=O)[C@@]2(O)CCC3C4CCC5=Cc6c(cnn6-c6ccc(F)cc6)CC5(C)C4[C@@H](O)CC32C)n1` (stereo partly shown) [Compound 101] and `CC12Cc3cnn(-c4ccc(F)cc4)c3C=C1CCC1C2[C@@H](O)CC2(C)C1CC[C@]2(O)C(=O)CC#N` (stereo partly shown) [Compound 9] fall in the same range of IC50: 0.06 to 20 nM for the first, 0.06 to 20 nM for the second.

`CC12Cc3cnn(-c4ccccn4)c3C=C1CCC1C2[C@@H](O)CC2(C)C1CC[C@]2(O)C(=O)CSc1ccccn1` (stereo partly shown) [Compound 46] and `CC12Cc3cnn(-c4ccccn4)c3C=C1CCC1C2[C@@H](O)CC2(C)C1CC[C@]2(O)C(=O)CSc1ncccn1` (stereo partly shown) [Compound 40] fall in the same range of IC50: 66 to 400 nM for the first, 66 to 400 nM for the second.

First: CC12Cc3cnn(C4CCCCC4)c3C=C1CCC1C2[C@@H](O)CC2(C)C1CC[C@]2(O)C(=O)CSc1ncccn1 (stereo partly shown) [Compound 126]
Second: Cc1cccc(SCC(=O)[C@@]2(O)CCC3C4CCC5=Cc6c(cnn6C)CC5(C)C4[C@@H](O)CC32C)n1 (stereo partly shown) [Compound 33]
The IC50 of the first is lower: 0.06 to 20 nM for the first, 66 to 400 nM for the second.

First: CC12Cc3cnn(-c4ccc(F)cc4)c3C=C1CCC1C2[C@@H](O)CC2(C)C1CC[C@]2(OC(=O)c1ccco1)C(=O)CSc1nc2ncccc2o1 (stereo partly shown) [Compound 99]
Second: CC12Cc3cnn(-c4ccccc4)c3C=C1CCC1C2[C@@H](O)CC2(C)C1CC[C@]2(O)C(=O)CSc1nc2ccccc2o1 (stereo partly shown) [Compound 19]
The IC50 of the first is lower: 0.06 to 20 nM for the first, 401 to 1000 nM for the second. The first is the more potent here.

Compared with `COc1ccc(-n2ncc3c2C=C2CCC4C([C@@H](O)CC5(C)C4CC[C@]5(O)C(=O)CSc4nc5ccccc5s4)C2(C)C3)cc1` (stereo partly shown) [Compound 85], `Cn1c(SCC(=O)[C@@]2(O)CCC3C4CCC5=Cc6c(cnn6-c6ccccc6)CC5(C)C4[C@@H](O)CC32C)nc2ccccc21` (stereo partly shown) [Compound 14] is lower in IC50: 66 to 400 nM for the first, 0.06 to 20 nM for the second.

With `CC12Cc3cnn(-c4ccccn4)c3C=C1CCC1C2[C@@H](O)CC2(C)C1CC[C@]2(O)C(=O)CSc1nc2ccccc2o1` (stereo partly shown) [Compound 36] the IC50 was 0.06 to 20 nM.

same assay, conditions: Homo sapiens; Table 1; NCl-H292 cells, TNFα 10 ng/ml; read-out: IL-8 inhibition (TR) Emax % inhibition

Compared with `Cn1c(SCC(=O)[C@@]2(O)CCC3C4CCC5=Cc6c(cnn6-c6ccc(C(C)(C)C)cc6)CC5(C)C4[C@@H](O)CC32C)nc2ccccc21` (stereo partly shown) [Compound 91], `Cn1c(SCC(=O)[C@@]2(O)CCC3C4CCC5=Cc6c(cnn6-c6ccccc6)CC5(C)C4[C@@H](O)CC32C)nc2ccccc21` (stereo partly shown) [Compound 14] is higher in Emax: under 60% for the first, over 80% for the second.

First: Cc1ccccc1-n1ncc2c1C=C1CCC3C([C@@H](O)CC4(C)C3CC[C@]4(O)C(=O)CSc3ccccn3)C1(C)C2 (stereo partly shown) [Compound 80]
Second: CC12Cc3cnn(-c4ccccn4)c3C=C1CCC1C2[C@@H](O)CC2(C)C1CC[C@]2(O)C(=O)CSc1ccccn1 (stereo partly shown) [Compound 46]
The Emax of the first is lower: under 60% for the first, 70 to 80% for the second.

Compared with `Cn1ncc2c1C=C1CCC3C([C@@H](O)CC4(C)C3CC[C@]4(O)C(=O)CSc3nc4ccccc4[nH]3)C1(C)C2` (stereo partly shown) [Compound 24], `Cn1ncc2c1C=C1CCC3C([C@@H](O)CC4(C)C3CC[C@]4(O)C(=O)CSc3nc4ccccc4n3C)C1(C)C2` (stereo partly shown) [Compound 20] is lower in Emax: 70 to 80% for the first, 60 to 70% for the second.

`CC12Cc3cnn(-c4ccc(F)cc4)c3C=C1CCC1C2[C@@H](O)CC2(C)C1CC[C@]2(O)C(=O)COc1nccc2ccccc12` (stereo partly shown) [Compound 114] and `CC12Cc3cnn(-c4ccc(F)cc4)c3C=C1CCC1C2[C@@H](O)CC2(C)C1CC[C@]2(O)C(=O)CSc1ncccn1` (stereo partly shown) [Compound 7] cannot be ordered by Emax: over 80% for the first, over 80% for the second.

`CC12Cc3cnn(-c4ccccc4)c3C=C1CCC1C2[C@@H](O)CC2(C)C1CC[C@]2(O)C(=O)COc1nc2ccccc2s1` (stereo partly shown) [Compound 120] and `Cn1c(OCC(=O)[C@@]2(O)CCC3C4CCC5=Cc6c(cnn6-c6ccccc6)CC5(C)C4[C@@H](O)CC32C)nc2ccccc21` (stereo partly shown) [Compound 119] cannot be ordered by Emax: over 80% for the first, over 80% for the second.

`Cc1cc(C)nc(SCC(=O)[C@@]2(O)CCC3C4CCC5=Cc6c(cnn6-c6ccc(F)cc6)CC5(C)C4[C@@H](O)CC32C)n1` (stereo partly shown) [Compound 101] and `CC12Cc3cnn(-c4ccc(F)cc4)c3C=C1CCC1C2[C@@H](O)CC2(C)C1CC[C@]2(O)C(=O)CC#N` (stereo partly shown) [Compound 9] cannot be ordered by Emax: over 80% for the first, over 80% for the second.

First: CC12Cc3cnn(-c4ccccn4)c3C=C1CCC1C2[C@@H](O)CC2(C)C1CC[C@]2(O)C(=O)CSc1ncccn1 (stereo partly shown) [Compound 40]
Second: CC12Cc3cnn(-c4ccccn4)c3C=C1CCC1C2[C@@H](O)CC2(C)C1CC[C@]2(O)C(=O)CSc1nc2ccccc2o1 (stereo partly shown) [Compound 36]
The Emax of the first is lower: 60 to 70% for the first, over 80% for the second.

`Cc1ccccc1-n1ncc2c1C=C1CCC3C([C@@H](O)CC4(C)C3CC[C@]4(O)C(=O)CSc3nc4ncccc4o3)C1(C)C2` (stereo partly shown) [Compound 79] and `CC12Cc3cnn(-c4ccccc4)c3C=C1CCC1C2[C@@H](O)CC2(C)C1CC[C@]2(O)C(=O)CSc1nc2ccccc2o1` (stereo partly shown) [Compound 19] cannot be ordered by Emax: under 60% for the first, under 60% for the second.

First: CC12Cc3cnn(C4CCCCC4)c3C=C1CCC1C2[C@@H](O)CC2(C)C1CC[C@]2(O)C(=O)CSc1ncccn1 (stereo partly shown) [Compound 126]
Second: Cc1cccc(SCC(=O)[C@@]2(O)CCC3C4CCC5=Cc6c(cnn6C)CC5(C)C4[C@@H](O)CC32C)n1 (stereo partly shown) [Compound 33]
The Emax of the first is higher: over 80% for the first, under 60% for the second.

First: CC12Cc3cnn(-c4ccc(F)cc4)c3C=C1CCC1C2[C@@H](O)CC2(C)C1CC[C@]2(OC(=O)c1ccco1)C(=O)CSc1nc2ncccc2o1 (stereo partly shown) [Compound 99]
Second: COc1ccc(-n2ncc3c2C=C2CCC4C([C@@H](O)CC5(C)C4CC[C@]5(O)C(=O)CSc4nc5ccccc5s4)C2(C)C3)cc1 (stereo partly shown) [Compound 85]
The Emax of the first is higher: over 80% for the first, 70 to 80% for the second.
